The results in this text go back to ChEMBL document CHEMBL1159164, “Inactivation of serine protease, -chymotrypsin by fluorinated phenylalanine analogues” (Bioorg Med Chem Lett, 1996).

Experiment [1] deals with T1, Chymotrypsinogen B (Homo sapiens, UniProt P17538). The experiment in a line: Time dependent loss of inhibitory activity toward alpha-chymotrypsin (1.6 uM concentration) at a pH of 7.8 by incubation method; no inactivation observed.
Experiment [2] deals with T1, Chymotrypsinogen B. Kind of experiment: Irreversible inhibitory activity toward alpha-chymotrypsin (1.6 uM concentration) at a pH of 7.8 by incubation method. reversible competitive inactivation.
Experiment [3] has as its target T1, Chymotrypsinogen B. Kind of experiment: Reversible inhibitory activity toward alpha-chymotrypsin (5 nM concentration) at a pH of 7.8 by progress curve method.
For experiment [4], the target named is T1, Chymotrypsinogen B.
In experiment [5] the target is T1, Chymotrypsinogen B. Kind of experiment: Reversible inhibitory activity toward alpha-chymotrypsin (5 nM concentration) at a pH of 7.8 by progress curve method; no inactivation observed.
Experiment [6] has as its target T1, Chymotrypsinogen B. The experiment in a line: Irreversible inhibitory activity toward alpha-chymotrypsin (1.6 uM concentration) at a pH of 7.8 by incubation method.
Experiment [7] deals with T1, Chymotrypsinogen B. Kind of experiment: Reversible inhibitory activity toward alpha-chymotrypsin (5 nM concentration) at a pH of 7.8 by progress curve method.; no inactivation observed.
Experiment [8] has as its target T1, Chymotrypsinogen B. The source holds these as a separate data set.

T1 sequence (P17538 34-164 limits assumed, other chains not shown): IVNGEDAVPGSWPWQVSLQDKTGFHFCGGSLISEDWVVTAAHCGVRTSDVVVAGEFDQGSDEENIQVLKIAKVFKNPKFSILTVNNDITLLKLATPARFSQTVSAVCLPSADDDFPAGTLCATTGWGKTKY
T1 sequence (P17538 167-263 limits assumed, other chains not shown): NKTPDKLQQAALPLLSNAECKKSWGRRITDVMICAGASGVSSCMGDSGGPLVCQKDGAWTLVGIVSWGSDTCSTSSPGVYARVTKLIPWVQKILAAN

On to `COC(=O)C(F)[C@H](Cc1ccccc1)NC(C)=O` (stereo in doubt; anti) [listing 1 of 2 here], for which, at Chymotrypsinogen B [1], the “K obs / 1” value was “No inactivation”. Besides, on Chymotrypsinogen B [2], the [I] amounted to 6.25 mM.
`COC(=O)C(F)[C@H](Cc1ccccc1)NC(C)=O` (stereo in doubt; syn) [listing 1 of 2 here]: at Chymotrypsinogen B [3], the Ki worked out at 19.1 mM.
Regarding `COC(=O)C(F)(F)[C@H](Cc1ccccc1)NC(C)=O`, the “K obs / 1” value at Chymotrypsinogen B [4] is “No inactivation”. Moreover, the Ki at Chymotrypsinogen B [3] worked out at 0.034 mM. Also, the [I] at Chymotrypsinogen B [2] amounted to 6.86 mM.
With `COC(=O)C(F)[C@H](Cc1ccccc1)NC(C)=O` (stereo in doubt; syn) [listing 2 of 2 here], on Chymotrypsinogen B [1], the “K obs / 1” value was “No inactivation”. In addition, at Chymotrypsinogen B [2], the [I] amounted to 4.58 mM.
In the case of `C=CC(F)[C@H](Cc1ccccc1)NC(C)=O` (some centres not stated), the “K obs / 1” value at Chymotrypsinogen B [1] is “No inactivation”. In addition, the Ki entry on Chymotrypsinogen B [5] is “No inactivation”. The molecule further registered a [I] on Chymotrypsinogen B [6] of 9.73 mM.
Turning to `CC(=O)N[C@@H](Cc1ccccc1)C(C)(F)F`, the “K obs / 1” value at Chymotrypsinogen B [1] is “No inactivation”. For the same molecule, on Chymotrypsinogen B [7], the Ki entry is reported as “No inactivation”. Also, on Chymotrypsinogen B [6], the [I] came to 4.85 mM.
As for `COC(=O)C(F)[C@H](Cc1ccccc1)NC(C)=O` (stereo in doubt; anti) [listing 2 of 2 here], on Chymotrypsinogen B [3], the Ki is 6.44 mM.
In turn, `C=CC(F)(F)[C@H](Cc1ccccc1)NC(C)=O` had a [I] on Chymotrypsinogen B [8] of 8.7 mM. In addition, the Ki on Chymotrypsinogen B [3] stood at 0.46 mM.
